Measured values taken from paper PMC5303009, “Benzenesulphonamide inhibitors of the cytolytic protein perforin” (Bioorganic & Medicinal Chemistry Letters, 2017).
Several values for one entry are separate records, joined by “and”; a condition that tells them apart may be missing. Equal values may be shown once. Read-outs that look alike come from different tables or passages of the source.

Key:
recombinant perforin [1] = target: T1, recombinant perforin (Mus musculus, UniProt P10820); details: diarylthiophene series; cited from earlier work
T1 sequence (P10820 21-554): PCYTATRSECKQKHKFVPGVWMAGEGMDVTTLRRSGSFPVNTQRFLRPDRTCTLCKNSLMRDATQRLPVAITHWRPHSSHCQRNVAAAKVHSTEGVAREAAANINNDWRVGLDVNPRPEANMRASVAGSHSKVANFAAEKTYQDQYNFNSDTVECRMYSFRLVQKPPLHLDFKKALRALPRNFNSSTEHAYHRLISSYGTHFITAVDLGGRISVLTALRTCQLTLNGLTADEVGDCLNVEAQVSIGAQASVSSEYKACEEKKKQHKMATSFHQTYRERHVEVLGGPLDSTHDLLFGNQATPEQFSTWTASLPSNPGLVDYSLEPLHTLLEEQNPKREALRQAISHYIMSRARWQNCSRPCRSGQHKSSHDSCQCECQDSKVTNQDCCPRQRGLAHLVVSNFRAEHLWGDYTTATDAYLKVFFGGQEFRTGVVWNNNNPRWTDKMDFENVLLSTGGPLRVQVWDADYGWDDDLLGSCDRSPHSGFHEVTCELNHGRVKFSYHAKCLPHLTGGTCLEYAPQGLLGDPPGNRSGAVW

[2] = target: T2, perforin delivered by KHYG-1 NK cells (Homo sapiens, UniProt P14222); test: KHYG-1 cytotoxicity assay: inhibition of NK cell lysis of 51Cr-labelled K562 target cells; type: cell-based; details: lysis of 51Cr-labelled K562 cells co-incubated with KHYG-1 NK cells, vs untreated control, ± SEM
T2 construct: The use of NK cells to secrete perforin rather than employing isolated recombinant protein is a more stringent test; endogenous in cells; host or cells: KHYG-1 NK cells (effector), K562 target cells
T2 sequence (P14222 22-555): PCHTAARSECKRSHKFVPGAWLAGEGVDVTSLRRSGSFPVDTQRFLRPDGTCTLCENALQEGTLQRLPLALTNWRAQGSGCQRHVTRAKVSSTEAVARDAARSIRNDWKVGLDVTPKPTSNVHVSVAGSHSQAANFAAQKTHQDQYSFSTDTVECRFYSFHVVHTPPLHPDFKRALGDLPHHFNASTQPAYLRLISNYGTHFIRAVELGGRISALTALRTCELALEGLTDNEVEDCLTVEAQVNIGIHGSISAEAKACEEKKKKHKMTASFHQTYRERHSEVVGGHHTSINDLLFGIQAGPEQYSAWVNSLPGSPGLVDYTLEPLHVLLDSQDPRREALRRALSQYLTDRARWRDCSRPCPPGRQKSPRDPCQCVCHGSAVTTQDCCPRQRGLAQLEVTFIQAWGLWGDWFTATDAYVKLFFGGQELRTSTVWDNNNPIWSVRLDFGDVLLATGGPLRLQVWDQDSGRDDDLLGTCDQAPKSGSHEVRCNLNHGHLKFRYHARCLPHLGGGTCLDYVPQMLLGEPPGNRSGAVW
Procedure: (§1) The use of NK cells to secrete perforin rather than employing isolated recombinant protein is a more stringent test of a compound’s ability to block lytic activity, requiring the inhibitor to access the synaptic cleft between effector (NK) and target cells where perforin is released.
Test compounds are then added (50 µL) at a final concentration of 20µM and incubated at RT for 20 min. ^51Cr-labelled K562 leukemia target cells (50 µL, 2 x 10^5 cells/mL) are then added to each well and incubated at 37 °C for 4 hours. ^51Cr release is assayed using a Skatron Harvesting Press and radioactivity estimated on a Wallac Wizard 1470 Automatic Gamma counter (Turku, Finland). The inhibitory function is then determined by identifying the number of untreated or inhibitor treated effector cells required to kill the same number of targets. The percent inhibition is calculated by the formula: […]
Where x is the point the inhibitor intersects with the DMSO on a curve.

[3] = Solubility of the sodium salt in water; type: physicochemical
[4] = Stability in solution (water); type: physicochemical; details: sodium salt, 24 h at 20 °C in water
[5] = Microsome stability, human; type: in vitro ADME; details: sodium salt, human microsomes, 30 min
[6] = Plasma protein binding by equilibrium dialysis; type: in vitro ADME; details: mouse plasma, 6 h incubation at 37 °C
[7] = target: Class I PI3-kinase enzyme p110α/p85 (Homo sapiens, UniProt P42336); test: PI3K-α counterscreening; type: biochemical; details: recombinant PI3-kinase, phosphatidylinositol substrate, [33P]-ATP; read-out: PI3Kα IC50
Sequence of Class I PI3-kinase enzyme p110α/p85 (P42336 whole entry): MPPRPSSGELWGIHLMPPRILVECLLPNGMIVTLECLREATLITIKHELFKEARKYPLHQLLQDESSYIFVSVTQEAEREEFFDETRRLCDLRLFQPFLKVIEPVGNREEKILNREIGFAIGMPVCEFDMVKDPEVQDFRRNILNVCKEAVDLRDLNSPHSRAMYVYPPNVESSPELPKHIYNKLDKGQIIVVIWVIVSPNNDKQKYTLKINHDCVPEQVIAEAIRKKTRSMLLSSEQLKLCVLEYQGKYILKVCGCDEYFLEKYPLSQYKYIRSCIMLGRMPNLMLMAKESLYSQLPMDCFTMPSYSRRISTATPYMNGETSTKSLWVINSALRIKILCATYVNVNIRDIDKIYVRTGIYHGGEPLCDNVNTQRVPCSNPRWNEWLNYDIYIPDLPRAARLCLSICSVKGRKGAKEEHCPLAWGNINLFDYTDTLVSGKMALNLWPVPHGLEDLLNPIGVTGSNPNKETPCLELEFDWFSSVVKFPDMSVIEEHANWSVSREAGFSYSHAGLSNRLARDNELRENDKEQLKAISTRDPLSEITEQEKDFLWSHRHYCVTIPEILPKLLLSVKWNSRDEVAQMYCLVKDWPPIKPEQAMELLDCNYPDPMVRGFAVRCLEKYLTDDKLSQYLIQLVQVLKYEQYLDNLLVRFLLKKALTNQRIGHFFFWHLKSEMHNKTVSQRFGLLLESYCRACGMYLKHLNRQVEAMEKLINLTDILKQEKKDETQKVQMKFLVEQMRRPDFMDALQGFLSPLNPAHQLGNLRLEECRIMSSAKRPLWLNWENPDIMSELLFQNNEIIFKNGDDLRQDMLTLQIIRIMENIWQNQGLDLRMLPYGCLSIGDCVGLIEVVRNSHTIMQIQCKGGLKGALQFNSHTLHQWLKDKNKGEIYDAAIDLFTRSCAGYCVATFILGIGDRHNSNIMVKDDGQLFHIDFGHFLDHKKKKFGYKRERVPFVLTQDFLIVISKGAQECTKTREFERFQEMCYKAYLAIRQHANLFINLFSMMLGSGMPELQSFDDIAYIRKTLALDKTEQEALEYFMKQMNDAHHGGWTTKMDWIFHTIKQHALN
Sequence of Class I PI3-kinase enzyme p110α/p85 (P27986 whole entry partner): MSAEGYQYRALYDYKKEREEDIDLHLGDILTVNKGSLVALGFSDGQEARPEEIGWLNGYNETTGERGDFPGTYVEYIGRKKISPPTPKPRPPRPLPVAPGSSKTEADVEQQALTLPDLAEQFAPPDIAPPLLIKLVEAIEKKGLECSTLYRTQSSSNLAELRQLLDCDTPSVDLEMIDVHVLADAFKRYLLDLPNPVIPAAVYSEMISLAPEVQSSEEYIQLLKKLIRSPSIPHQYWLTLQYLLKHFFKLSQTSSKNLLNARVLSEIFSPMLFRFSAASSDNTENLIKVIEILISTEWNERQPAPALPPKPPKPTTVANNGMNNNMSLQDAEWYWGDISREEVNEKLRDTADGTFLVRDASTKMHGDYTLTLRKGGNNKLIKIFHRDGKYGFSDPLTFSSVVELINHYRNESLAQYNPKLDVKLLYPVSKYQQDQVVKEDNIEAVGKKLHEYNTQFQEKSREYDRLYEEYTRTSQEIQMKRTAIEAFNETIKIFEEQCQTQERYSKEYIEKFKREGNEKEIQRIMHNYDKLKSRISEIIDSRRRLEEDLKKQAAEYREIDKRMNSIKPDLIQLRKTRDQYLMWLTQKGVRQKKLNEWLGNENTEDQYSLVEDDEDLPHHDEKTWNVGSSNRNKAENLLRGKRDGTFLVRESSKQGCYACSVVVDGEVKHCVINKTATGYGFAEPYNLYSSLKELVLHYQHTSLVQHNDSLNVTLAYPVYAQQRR
Procedure: Given that the pyridine-3-yl-2,4-difluorobenzenesulphonamide subunit is derived from a structure that was optimised to target PI3Kα, it was also considered prudent to counter-screen for off-target effects related to this pathway.
Compounds were evaluated for their ability to inhibit the Class I PI3-kinase enzyme p110α/p85.

[8] = Toxicity to KHYG-1 NK cells (Trypan blue exclusion); type: cell-based, human; details: human, KHYG-1 NK cells, after 24 h, ± SEM
Procedure: as §1
(§2) The toxicity assay was carried out in exactly the same manner as the killing assay above, but instead of adding the labelled K562 target cells, 100 μL of RPMI 0.1% BSA was added. Cells were incubated for 4 h at 37 °C and then washed ×3 in RPMI + 0.1% BSA. […] Trypan blue was added to each well. Viable (clear) cells and total (clear + blue) cells were counted, and the percentage of viable cells was calculated compared to DMSO treated cell control (% viability).

KHYG-1 NK cells = test: as above; type: cell-based, human; details: after 24 h, ± SEM, 20 µM
Procedure: as §1, §2

[9] = Microsome stability, mouse; type: in vitro ADME; details: sodium salt, mouse microsomes, 30 min
Microsome stability, rat = type: in vitro ADME; details: sodium salt, rat microsomes, 30 min
recombinant perforin [10] = target: T1, recombinant perforin; test: Inhibition of perforin-mediated lysis of Jurkat cells (51Cr release); type: cell-based
Procedure: The ability of the compounds to inhibit the lysis of nucleated (Jurkat T lymphoma) cells in the presence of 0.1% BSA, as measured by release of ^51Cr was measured. Jurkat target cells were labelled by incubation in medium with 100 µCi ^51Cr for one hour. The cells were then washed three times to remove unincorporated isotope and re-suspended at 1 x 10^5 cells per mL in RPMI buffer supplemented with 0.1% BSA. […] The supernatant was collected and assessed for its radioactive content on a gamma counter (Wallac Wizard 1470 automatic gamma counter). Each data point was performed in triplicate and an IC50 was calculated from the range of concentrations described to above.

recombinant perforin [11] = target: T1, recombinant perforin; test: as above; type: cell-based; details: read-out: Inhibitory activity in Jurkat assay at 20 μM with serum
[12] = sodium salt in water at room temperature
[13] = read-out: Inhibition of Jurkat cell lysis IC50; recombinant perforin, 0.1% BSA, 51Cr release, 4 h; average of at least two determinations
[14] = recombinant perforin, 0.1% BSA, 51Cr release, 4 h; average of at least two determinations; read-out: Inhibition of Jurkat cell lysis IC50

## CS(=O)(=O)Nc1ccc(-c2ccc(-c3ccc4c(c3)COC4=O)s2)cc1 [Compound 2]
Recombinant perforin [1]
  Inhibition of isolated perforin: sub-micromolar

## NC(=O)c1ccc(-c2ccc(-c3ccc4c(c3)COC4=O)s2)cn1 [Compound 3]
Recombinant perforin [1]
  Inhibition of isolated perforin: sub-micromolar

## CN1Cc2cc(-c3ccc(-c4cncc(NS(=O)(=O)c5ccc(F)cc5F)c4)s3)ccc2C1=O [Compound 5]
[2]
  inhibition at 20 µM: 88 ± 3.8%
[3]; sodium salt in water
  solubility: 1100 µg/mL
[3]; [12]
  solubility: 1080 µg/mL
[4]
  Stability in solution (% parent remaining): 82% and 81.5%
[5]
  Microsome stability (% parent remaining), Human: 58%
[6]
  fraction unbound at 6 h: 0.0011
[7]
  IC50: > 6.25 µM

## O=C1NCc2cc(-c3ccc(-c4cncc(NS(=O)(=O)c5ccc(F)cc5F)c4)s3)ccc21 [Compound 6]
[8]
  viability at 24 h, 20 µM: > 90%
KHYG-1 NK cells
  KHYG-1 viability (% at 20 μM): 94 ± 4.0%
[3]; sodium salt in water
  solubility: 10600 µg/mL
[3]; [12]
  solubility: 10600 µg/mL
[4]
  Stability in solution (% parent remaining): 82.0%
[9]
  Microsome stability (% parent remaining), Mouse: 92%
Microsome stability, rat
  Microsome stability (% parent remaining), Rat: 88%
[5]
  Microsome stability (% parent remaining), Human: 85%
[6]
  fraction unbound at 6 h: 0.003

## O=C1NCc2ccc(-c3ccc(-c4cncc(NS(=O)(=O)c5ccc(F)cc5F)c4)s3)cc21 [Compound 7]
Recombinant perforin [10]; [13]
  IC50: 4.15 µM
[8]
  viability at 24 h, 20 µM: > 90%
KHYG-1 NK cells
  KHYG-1 viability (% at 20 μM): 96 ± 6.0%
[3]; sodium salt in water
  solubility: 12900 µg/mL
[3]; [12]
  solubility: 12900 µg/mL
[4]
  Stability in solution (% parent remaining): 97% and 97.3%
[9]
  Microsome stability (% parent remaining), Mouse: 42%
Microsome stability, rat
  Microsome stability (% parent remaining), Rat: 82%
[5]
  Microsome stability (% parent remaining), Human: 83%
[6]
  fraction unbound at 6 h: 0.0003

## CN1Cc2ccc(-c3ccc(-c4cncc(NS(=O)(=O)c5ccc(F)cc5F)c4)s3)cc2C1=O [Compound 8]
Recombinant perforin [10]; [13]
  IC50: 10.4 µM

## O=C1NCCc2cc(-c3ccc(-c4cncc(NS(=O)(=O)c5ccc(F)cc5F)c4)s3)ccc21 [Compound 9]
Recombinant perforin [10]; [14]
  IC50: > 20 µM

## CN1CCc2cc(-c3ccc(-c4cncc(NS(=O)(=O)c5ccc(F)cc5F)c4)s3)ccc2C1=O [Compound 10]
Recombinant perforin [10]; [14]
  IC50: > 20 µM

## O=C1NCCc2ccc(-c3ccc(-c4cncc(NS(=O)(=O)c5ccc(F)cc5F)c4)s3)cc21 [Compound 11]
Recombinant perforin [10]; [14]
  IC50: > 20 µM

## CC1c2cc(-c3ccc(-c4cncc(NS(=O)(=O)c5ccc(F)cc5F)c4)s3)ccc2C(=O)N1C (stereo not drawn) [Compound 13]
Recombinant perforin [10]; recombinant perforin, 0.1% BSA, 51Cr release, 4 h; average of at least two determinations
  Inhibition of Jurkat cell lysis IC50: poor activity
Recombinant perforin [10]; [14]
  IC50: > 20 µM

## O=C1Cc2cc(-c3ccc(-c4cncc(NS(=O)(=O)c5ccc(F)cc5F)c4)s3)ccc2N1 [Compound 14]
Recombinant perforin [10]; compared with compound 15
  Fold superior to N-methyl partner 15 (Jurkat IC50): ~2 fold
Recombinant perforin [10]; [13]
  IC50: 5.18 µM
[8]
  viability at 24 h, 20 µM: > 90%
KHYG-1 NK cells
  KHYG-1 viability (% at 20 μM): 96 ± 1.0%
[3]; sodium salt in water
  solubility: 390 µg/mL
[3]; [12]
  solubility: 392 µg/mL
[4]
  Stability in solution (% parent remaining): 88.7%
[9]
  Microsome stability (% parent remaining), Mouse: 84%
Microsome stability, rat
  Microsome stability (% parent remaining), Rat: 79%
[5]
  Microsome stability (% parent remaining), Human: 71%
[6]
  fraction unbound at 6 h: 0.0009

## CN1C(=O)Cc2cc(-c3ccc(-c4cncc(NS(=O)(=O)c5ccc(F)cc5F)c4)s3)ccc21 [Compound 15]
Recombinant perforin [10]; [13]
  IC50: 10.3 µM

## O=S(=O)(Nc1cncc(-c2ccc(-c3ccc4[nH]ccc4c3)s2)c1)c1ccc(F)cc1F [Compound 16]
Recombinant perforin [10]; Jurkat, read-out: Inhibitory activity in Jurkat assay at 20 μM
  inhibition at 20 µM: 88%
Recombinant perforin [11]
  inhibition at 20 µM: 32%

## Cn1ccc2cc(-c3ccc(-c4cncc(NS(=O)(=O)c5ccc(F)cc5F)c4)s3)ccc21 [Compound 17]
Recombinant perforin [10]; [13]
  IC50: 7.58 µM

## CC(=O)c1cn(C)c2ccc(-c3ccc(-c4cncc(NS(=O)(=O)c5ccc(F)cc5F)c4)s3)cc12 [Compound 18]
Recombinant perforin [10]; [13]
  IC50: 11.2 µM

## CN1Cc2cc(-c3ccc(-c4cncc(NS(=O)(=O)c5ccc(F)cc5F)c4)o3)ccc2C1=O [Compound 19]
Recombinant perforin [10]; [14]
  IC50: 15 µM

## CN1Cc2cc(-c3ncc(-c4cncc(NS(=O)(=O)c5ccc(F)cc5F)c4)s3)ccc2C1=O [Compound 20]
Recombinant perforin [10]; [13]
  IC50: 17.1 µM

## CN1Cc2cc(-c3nc(-c4cncc(NS(=O)(=O)c5ccc(F)cc5F)c4)cs3)ccc2C1=O [Compound 21]
Recombinant perforin [10]; [14]
  IC50: > 20 µM

## CN1Cc2cc(-c3ccc(-c4cncc(NS(=O)(=O)c5ccc(F)cc5F)c4)nc3)ccc2C1=O [Compound 22]
Recombinant perforin [10]; [13]
  IC50: 8.17 µM
